According to patent EP0899270B1, “Indolylmethyl-N,N'-bisacylpiperazines as neurokinine receptor antagonists” (Solvay Pharmaceuticals GmbH, priority 1997, dated 1999):
Like-named read-outs stand apart in the source and are kept apart here.

Legend:
humanen NK-2-Rezeptoren = target: T1, humanen NK-2-Rezeptoren (Homo sapiens, UniProt P21452); test: Binding of test substances to NK-2 receptors in vitro (SR 48,968 displacement, CHO cell membranes); settings: SR 48,968 as ligand; membranes of CHO cells expressing human NK-2 receptor; read-out: Ki (Affinität der Testsubstanzen zu humanen NK-2-Rezeptoren)
T1 sequence (P21452 1-398): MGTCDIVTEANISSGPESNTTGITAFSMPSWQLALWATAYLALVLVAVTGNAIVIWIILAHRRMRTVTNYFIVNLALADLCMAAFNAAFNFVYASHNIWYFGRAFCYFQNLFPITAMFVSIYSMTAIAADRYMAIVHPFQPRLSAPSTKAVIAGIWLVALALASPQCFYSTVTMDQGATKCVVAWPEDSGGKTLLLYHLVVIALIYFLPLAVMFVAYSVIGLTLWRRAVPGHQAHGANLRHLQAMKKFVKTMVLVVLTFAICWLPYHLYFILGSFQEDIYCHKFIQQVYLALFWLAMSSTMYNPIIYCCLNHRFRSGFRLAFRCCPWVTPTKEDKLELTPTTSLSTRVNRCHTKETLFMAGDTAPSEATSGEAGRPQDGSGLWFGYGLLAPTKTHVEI
Text: 2. Bestimmung des Bindungsvermögens der Testsubstanzen an NK-2-Rezeptoren in vitro
Die Affinität der Testsubstanzen zu humanen NK-2-Rezeptoren wird in vitro gemessen. Bestimmt wird die Hemmung der Bindung der Verbindung SR-48,968 an NK-2-Rezeptoren. SR-48,968 ist eine als spezifischer NK-2-Antagonist bekannte synthetisch hergestellte Verbindung.
Die Rezeptor-Bindungsstudien werden mit SR 48,968 als Ligand durchgeführt. Die Versuchsdurchführung entspricht der im pharmakologischen Test zur Bestimmung des Bindungsvermögens der Testsubstanzen an NK-1-Rezeptoren in vitro angegebenen Methode. Im Unterschied hierzu werden nunmehr aber verschiedene Proben einer Membranpräparation von CHO-Zellen verwendet, welche den humanen NK-2-Rezeptor exprimieren. In diesem Testmodell zeigten die in der folgenden Tabelle 1 aufgeführten Beispielsubstanzen die angegebenen Ki-Werte für die Affinität zu humanen NK-2-Rezeptoren: Tabelle 1: Affinität der Testsubstanzen zu humanen NK-2-Rezeptoren

NK-1-Rezeptor = target: T2, NK-1-Rezeptor (Cavia porcellus, UniProt P30547); test: Functional NK-1 antagonism on isolated guinea pig aorta rings in vitro (inhibition of Substanz P induced tone relaxation); design: species or system Pirbright-White Meerschweinchen; settings: aorta rings toned with Phenylephrin, stimulated with 0,01 µmol Substanz P; read-out: IC50 (halbmaximale Hemmung der Tonusrelaxation)
T2 construct: Ringpräparaten der Aorta von Pirbright-White Meerschweinchen; from tissue; host or cells: isolated aorta rings of Pirbright-White guinea pigs
T2 sequence (P30547 whole entry): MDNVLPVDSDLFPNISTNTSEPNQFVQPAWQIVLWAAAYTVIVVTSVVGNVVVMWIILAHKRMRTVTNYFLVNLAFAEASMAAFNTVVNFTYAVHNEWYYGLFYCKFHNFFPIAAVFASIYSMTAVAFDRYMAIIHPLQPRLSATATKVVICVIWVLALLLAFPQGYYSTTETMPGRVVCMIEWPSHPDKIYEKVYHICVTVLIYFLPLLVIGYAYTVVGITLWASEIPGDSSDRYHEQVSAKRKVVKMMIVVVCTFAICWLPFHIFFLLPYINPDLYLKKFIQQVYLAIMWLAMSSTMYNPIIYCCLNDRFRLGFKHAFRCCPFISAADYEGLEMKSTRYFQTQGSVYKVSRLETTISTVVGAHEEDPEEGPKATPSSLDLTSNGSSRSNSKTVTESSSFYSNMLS
Text: 3. Bestimmung des funktionellen NK-1-Antagonismus der Testsubstanzen an isoliertem Gewebe vom Meerschweinchen in vitro
Die NK-1-Rezeptor-antagonisierende Wirkung der Testsubstanzen wurde an isolierten, in einer oxygenierten Nährlösung gehaltenen Ringpräparaten der Aorta von Pirbright-White Meerschweinchen in vitro gemessen. Bestimmt wird die Hemmung der nach Stimulierung mit dem NK-1-Agonisten Substanz P hervorgerufenen Tonusrelaxation der Aortapräparate durch die Testsubstanzen.
Zur Messung der Kontraktion der Gefäßmuskulatur werden die Präparate an einem Haken fixiert, durch einen Faden mit einem Kraftmessungsgerät verbunden und die Kontraktionen werden jeweils an einem Schreiber registriert. Die Aortapräparate werden mit Phenylephrin tonisiert. Anschließend werden die NK-1-Rezeptoren der Präparate vor und nach der Gabe der Prüfsubstanz mit 0,01 µmol Substanz P stimuliert, wodurch eine Relaxation des Tonus herbeigeführt wird. Die Relaxationen vor und nach Gabe der Prüfsubstanz werden in Prozent quantifiziert. Als Kenngröße wird die Konzentration der halbmaximalen Hemmung (= IC50) errechnet, welche diejenige Konzentration angibt, bei der eine halbmaximale Hemmung der Tonusrelaxation eintritt.
In diesem Testmodell zeigten die in der folgenden Tabelle 2 aufgeführten Beispielsubstanzen die angegebenen IC50-Werte für die halbmaximale Hemmung : Tabelle 2: Funktioneller NK-1-Antagonismus der Testsubstanzen an isoliertem Meerschweinchen-Gewebe

[1] = test system: durch Substanz P induzierter Blutdrucksenkung; test: Substance P antagonistic effect in vivo (Substanz P induced hypotension in guinea pigs); design: species or system Meerschweinchen; settings: Cavia porcellus, 1 h, 50 pmol Substanz P i.v., evaluated after 60 minutes, read-out: ED50 (50%ige Hemmung der Substanz P-induzierten Blutdrucksenkung)
Text: 4. Bestimmung der Substanz-P-antagonistischen Wirkung der Testsubstanzen in vivo.
Zum Nachweis der Substanz-P-antagonistischen Wirkung der Testsubstanzen wurde als Standardtestmodell für Substanz-P-induzierte pharmakologische Effekte die durch Substanz-P-Applikation hervorgerufene Hypotension in Meerschweinchen verwendet. Es wurde die Hemmwirkung der Testsubstanzen gegenüber durch Substanz P induzierter Blutdrucksenkung nach intravenöser (= i.v.) und intraduodenaler (= i.d.) Applikation der Testsubstanzen bestimmt.
Männlichen Meerschweinchen werden in Narkose (Ketamin 67 mg/ kg, Xylazine 13 mg/kg) jeweils ein Katheter in eine Arteria Carotis Communis und in eine Vena Jugularis implantiert. Der arterielle Katheter dient zur Blutdruckmessung. Die Messung erfolgt mit einem Statham 23d/B Druckaufnehmer. Über den venösen Zugang erfolgt die Gabe von Substanz P bzw. bei intravenöser Gabe auch die Applikation der Testsubstanz. Nach einer Äquilibrierungsphase von 20 Minuten werden 50 pmol/Tier Substanz P als Bolus i.v. appliziert. Danach erfolgt die Gabe der Testsubstanz. Bei der i.v. Untersuchung wird die Testsubstanz in Dosierungen von 0.1, 0.46 bzw. 1.0 µmol/kg einer Gruppe von jeweils 4 bis 6 Tieren intravenös appliziert. Die Kontrollgruppe erhält die entsprechende Menge einer physiologischen Kochsalzlösung. […]

humanen NK-1-Rezeptoren = target: T3, humanen NK-1-Rezeptoren (Homo sapiens, UniProt P25103); test: Binding of test substances to NK-1 receptors in vitro ([3H]-Substanz P displacement, CHO cell membranes); settings: [3H]-Substanz P as ligand; membranes of CHO cells expressing human NK-1 receptor; Ki calculated from IC50; read-out: Ki-Wert für die Affinität zu humanen NK-1-Rezeptoren
T3 construct: expressed in transfected cells; host or cells: CHO cells (membrane preparation)
T3 sequence (P25103 whole entry): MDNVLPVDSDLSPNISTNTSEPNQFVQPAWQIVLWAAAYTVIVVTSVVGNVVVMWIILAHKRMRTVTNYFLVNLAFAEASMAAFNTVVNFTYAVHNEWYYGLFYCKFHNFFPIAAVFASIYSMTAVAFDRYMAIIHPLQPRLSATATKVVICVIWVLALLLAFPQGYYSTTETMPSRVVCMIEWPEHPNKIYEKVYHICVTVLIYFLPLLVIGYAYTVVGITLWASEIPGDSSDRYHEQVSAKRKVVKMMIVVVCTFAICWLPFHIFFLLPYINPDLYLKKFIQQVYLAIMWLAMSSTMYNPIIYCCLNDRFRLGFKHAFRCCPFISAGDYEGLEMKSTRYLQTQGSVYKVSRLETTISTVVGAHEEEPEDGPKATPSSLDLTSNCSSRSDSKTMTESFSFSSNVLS
Text: 1. Bestimmung des Bindungsvermögens der Testsubstanzen an NK-1-Rezeptoren in vitro.
Die Affinität der Testsubstanzen zu humanen NK-1-Rezeptoren wird in vitro gemessen. Bestimmt wird die Hemmung der Bindung des physiologischen Neurokinins (Substanz P) an Neurokinin-1-Rezeptoren.
Die Rezeptor-Bindungsstudien werden mit [^3H]-Substanz P als Ligand durchgeführt. Für den Bindungsversuch werden verschiedene Proben einer Membranpräparation von CHO-Zellen (= […] des chinesischen Hamsters, […]), die den humanen NK-1-Rezeptor exprimieren, mit einer Lösung des markierten Liganden inkubiert, wobei die Inkubationsansätze keine Testsubstanz oder Zusätze unterschiedlicher Konzentrationen an Testsubstanz enthalten. Anschließend wird in den Proben jeweils eine Trennung von gebundenem und freiem Liganden mit Hilfe einer Glasfiber-Filtration vorgenommen. Die im Filter verbleibende Fraktion wird mehrmals mit Pufferlösung gewaschen und anschließend wird die Radioaktivität der im Filter verbliebenen Fraktion mit einem Beta-Scintillationszähler gemessen. Es wird als IC50 der jeweiligen Testsubstanz diejenige Konzentration bestimmt, welche eine halbmaximale Verdrängung des gebundenen Liganden bewirkt. Aus dieser wird die entsprechende Inhibitionskonstante (Ki-Wert) der Testsubstanz berechnet. […]

COc1ccccc1CNCCNC(=O)N1CCN(C(=O)c2cc(C(F)(F)F)cc(C(F)(F)F)c2)[C@H](Cc2c[nH]c3ccccc23)C1 [Beispiel 1, (2R)-1-[3,5-Bis(trifluormethyl)benzoyl]-2-(1H-indol-3-ylmethyl)-4-(2-[N-(2-methoxybenzyl)aminoethyl]aminocarbonyl}piperazin]
Ki (humanen NK-2-Rezeptoren): 60 nM
IC50 (NK-1-Rezeptor): 1 nM
ED50 ([1]; i.d.-Applikation): 0.08 µmol/kg
ED50 ([1]; iv, i.v.-Applikation): 0.2 µmol/kg
Ki (humanen NK-1-Rezeptoren): 2.1 nM

COc1ccccc1CN(C)CCNC(=O)N1CCN(C(=O)c2cc(C(F)(F)F)cc(C(F)(F)F)c2)C(Cc2c[nH]c3ccccc23)C1 (stereo not drawn) [Beispiel 2]
Ki (humanen NK-2-Rezeptoren): 50 nM
IC50 (NK-1-Rezeptor): 1.2 nM

O=C(NCCNCc1ccc(F)cc1)N1CCN(C(=O)c2cc(C(F)(F)F)cc(C(F)(F)F)c2)C(Cc2c[nH]c3ccccc23)C1 (stereo not drawn) [Beispiel 3]
Ki (humanen NK-2-Rezeptoren): 300 nM
IC50 (NK-1-Rezeptor): 1.5 nM
